Literature values in paper PMC7530097 (Chemical communications (Cambridge, England), 2020).

Tests used:
[1] = target: Group-III agr subgroup of S. aureus (Staphylococcus aureus, UniProt O33590); conditions: read-out: IC50 (95% CI) Group-III; β-lactamase reporter cell assay; ref [6]
[2] = target: Group-II agr subgroup of S. aureus (Staphylococcus aureus, UniProt O33587); conditions: read-out: IC50 (95% CI) Group-II; β-lactamase reporter cell assay; ref [6]
[3] = tested on: AgrC; conditions: ref [25]

Row | Substance | IC50 [1] [nM] | IC50 [2] [nM] | inhibition of AgrC [3]
1 | AIP-I | 3 | 25 | 
2 | Solonamide B |  |  | competitively inhibit AgrC
